Assay results reported in patent US20190381198A1, “RA[…]-GAL[…] FOR PET IMAGING OF SENESCENCE” (Eberhard Karls Universitaet Tuebingen Medizinische Fakultaet, priority 2017, published 2019).

Experiments:
[1] = stability of tracer 9 in mouse serum (radio-HPLC); type: in vitro ADME; conditions: 37° C., 1 hour
Method: The tracer 9 is incubated at 37° C. in mouse serum to assess its stability. After 1 hour, 2 volume equivalents of acetonitrile are added and the mixture is centrifuged for 5 minutes. The supernatant is examined directly using radio-HPLC. Serum stability of tracer 9 after 1 h (FIG. 3a) vs tracer 9 (FIG. 3b) is derivable from FIG. 3.

HCT116 cells = experiment: in vitro tracer uptake in senescent vs control HCT116 cells (gamma counter); type: cell-based; conditions: 3.7-7.4 MBq of tracer, 50 minutes
Method: (§1) HCT116 (FIG. 4a) and Hras cells (FIG. 4b) are treated with […] of tracer and incubated for 50 minutes. The cells are measured in a gamma-counter, with the activity normalized to the number of cells used.
(§2) The PET-tracer is tested in two different models in vitro. In HCT116 cells senescence is induced by overnight incubation with doxorubicin, followed by 4 days of culture under normal conditions. Senescence in a HRas driven liver progenitor cell line with a doxycycline regulatable p53-specific shRNA. After induction of senescence, both cell lines are incubated with 3.7-7.4 MBq of tracer for 50 minutes. The cells are then washed, counted and measured in a gamma counter. The activity taken up by the cells is analyzed and normalized to a million cells.

[2] = tested on: HRas driven liver progenitor cell line; experiment: in vitro tracer uptake in senescent vs control HRas driven liver progenitor cells (gamma counter); type: cell-based; conditions: 3.7-7.4 MBq of tracer, 50 minutes
Method: (§3) As the second model, transgenic liver progenitor cell line (Hras) was used for subcutaneous allografts in nude mice. The cell line expresses Hras^G12v and p53shRNA under doxycycline (doxy) conditions. After the removal of doxycycline, the p53 mRNA can be restored and translated to p53 protein. The high amount of p53 triggers senescence. The animals bearing Hras tumors received doxy-water (0.2 mg/ml) for tumor development and 14 days, after removal of doxy-water, the PET/MRT scans are performed with compound 9.
as §1, §2

HCT116 tumors = experiment: in vivo PET tracer uptake in s.c. HCT116 xenograft tumors, doxorubicin-induced senescence; set-up: species or system nude mice; conditions: for TMR (tumor-to-muscle ratio) / in vivo tracer uptake: PET; for in vivo tracer uptake: i.v.
Method: A xenograft model of colorectal cancer cell line (HCT116) with therapy induced senescence, doxorubicin is used as a chemotherapeutic. Senescence is induced in HCT116 xenograft tumors by intravenous (i.v.) administration of doxorubicin (10 mg/kg). Through tail vain of the mice, 5 days later dynamic PET/MRT scans (1 h) with compound 9 are performed.
(§4) In vivo tests are performed in nude mice bearing s.c. HCT116 or HRas driven liver progenitor cells. Mice bearing HCT116 tumors are treated with doxorubicin (10 mg/Kg bodyweight) and imaged 4 days after the onset of senescence. Mice bearing Hras driven tumor are supplied with doxycycline in their drinking water, which has been later removed to induce senescence. After induction of senescence, the tracer is administered i.v. and PET scans are performed. The %ID/cc and tumor-to-muscle ratios are determined through quantitative analysis of the PET data, permitting evaluation of the tracers. In vitro senescent HCT116 cells show an uptake of 11 kBq/1 mio cells, while the uptake in non-senescent control cells is only 4 kBq/1 mio cells.
The in vivo tracer uptake in senescent and non-senescent HCT116 tumors (FIG. 5) is 1.7+/−0.7 (n=7) vs 1.1+/−0.4 (n=5) %ID/cc respectively; the respective TMR values are 1.7 and 1.1. […] Both %ID/cc and TMR are higher in senescent vs control tumors. The excised tumors are subjected to ex vivo analyses.

Hras tumors = experiment: in vivo PET tracer uptake in s.c. HRas driven tumors, senescence by doxycycline removal; set-up: species or system nude mice; conditions: for TMR (tumor-to-muscle ratio) / tracer uptake: PET; for tracer uptake: i.v.
Method: as §3, §4
Both %ID/cc and TMR are higher in senescent vs control tumors. The excised tumors are subjected to ex vivo analyses. […] Senescent tumor slices also show higher X-Gal staining than control sections. The nonsenescent tumor expresses GFP, which can be visualized with optical imaging.

beta-galactosidase = conditions: 30° C., 30 minutes, citrate buffer pH 5.5
Method: To assess whether tracer 9 is a substrate of beta-galactosidase, it is incubated at 30° C. for 30 minutes in citrate buffer of pH 5.5 containing commercially available betagalactosidase (Sigma). The reaction is stopped by adding 2 volume equivalents of acetonitrile, followed by 5 minutes of centrifugation. The supernatant is examined directly using radio-HPLC. […] The expected radioactive metabolite is compared with the authentic non-radioactive standard (FIG. 2). […] Compound 11 is galactose.

## OC[C@H]1O[C@@H](Oc2cccnc2[18F])[C@H](O)[C@@H](O)[C@H]1O [tracer 9]
[1]
  serum stability: integrity remains largely intact
HCT116 cells; HCT116 cells, activity normalized to number of cells
  uptake in senescent cells compared to controls: significantly higher uptake compared to the controls
HCT116 cells; non-senescent control HCT116 cells
  uptake: 4 kBq/1 mio cells
HCT116 cells; senescent HCT116 cells
  uptake: 11 kBq/1 mio cells
[2]; Hras cells, activity normalized to number of cells
  uptake in senescent cells compared to controls: significantly higher uptake compared to the controls
[2]; non-senescent HRas driven liver progenitor cells
  uptake: 63 kBq/1 mio cells
[2]; senescent HRas driven liver progenitor cells
  uptake: 192 kBq/1 mio cells
HCT116 tumors; HCT116 tumor sections, senescent vs control
  autoradiography of excised tumors, ex vivo: higher tracer uptake in the senescent tumor section vs control
HCT116 tumors; non-senescent HCT116 tumors
  TMR (tumor-to-muscle ratio): 1.1
HCT116 tumors; non-senescent HCT116 tumors, n=5
  in vivo tracer uptake: 1.1+/−0.4 %ID/cc
HCT116 tumors; senescent HCT116 tumors
  TMR (tumor-to-muscle ratio): 1.7
HCT116 tumors; senescent HCT116 tumors, n=7
  in vivo tracer uptake: 1.7+/−0.7 %ID/cc
Hras tumors; HRas tumor sections, senescent vs control
  autoradiography of excised tumors, ex vivo: higher tracer uptake in the senescent tumor section vs control
Hras tumors; control HRas tumors
  TMR (tumor-to-muscle ratio): 1.2
Hras tumors; control HRas tumors, n=11
  tracer uptake: 0.9+/−0.3 %ID/cc
Hras tumors; senescent HRas tumors
  TMR (tumor-to-muscle ratio): 2.1
Hras tumors; senescent HRas tumors, n=16
  tracer uptake: 1.5+/−0.3 %ID/cc
beta-galactosidase
  conversion by beta-galactosidase (radioactive metabolite by radio-HPLC): produces the radioactive metabolite with the same retention time as the non-radioactive 2-fluoropyridinol
